Assay [1] concerns eight strains possessing β-galactosidase activity. As to the kind of experiment: Fluorescent check of β-galactosidase activity in the eight discordant strains (Example 2). The conditions noted are these: all eight strains that selectively hydrolyzed Alizarin-2-β-D-galactoside. It counts as cell-based. An excerpt: The vast majority of strains (96.5%) reacted in exactly the same way—i.e. either positively or negatively—with both substrates. Eight strains selectively hydrolyzed Alizarin-2-β-D-galactoside. […] Therefore, these substrates are extremely sensitive and can be used at very low concentrations.

For assay [2], the system named is Enterococcus faecalis 117. In words: Comparison of glucoside substrates in semi-solid Columbia medium (Example 7). The format is cell-based.
For the next assay, the system named is Citrobacter koseri 059. The description is as above. It counts as cell-based.
Assay [3] deals with Klebsiella pneumoniae 023. Described as above. It counts as cell-based.
Another assay relates to Listeria ivanovii 018. In words: β-glucosidase detection in API strip wells (Example 6). To be noted: 0.4 g/l.
Assay [4] concerns Listeria monocytogenes 022. The description is as above. To be noted: 0.4 g/l.
For a further assay, the system named is Enterococcus faecium 009. The assay is described as above. To be noted: 0.4 g/l.
Another assay deals with eight (8) species tested. In words: β-glucosidase detection in API strip wells, all species together (Example 6). It counts as cell-based. To be noted: of the eight (8) species tested; 0.4 g/l.
Assay [5] concerns Klebsiella pneumoniae 023. As to the kind of experiment: β-glucosidase detection in API strip wells (Example 6). To be noted: 0.4 g/l.
Another assay has as its system Listeria innocua 036. The description is as above. To be noted: 0.4 g/l.
The test system of another assay is Listeria seeligeri 080. Described as above. The conditions noted are these: 0.4 g/l; 24 H.
A further assay concerns Serratia marcescens 042. As to the kind of experiment: β-galactosidase detection in semi-solid Columbia medium (Example 1). It counts as cell-based. To be noted: 0.2 g/l, no iron citrate.
The next assay deals with Escherichia coli 115. The assay is described as above. It counts as cell-based. To be noted: 0.2 g/l, no iron citrate.
The subject of assay [6] is Klebsiella pneumoniae 023. The description is as above. The conditions noted are these: 0.2 g/l, no iron citrate; 48 H. The format is cell-based.
Setting [7] is: 0.05 g/l + iron citrate 0.05 g/l, 18 H.
Setting [8] is: 0.05 g/l + iron citrate 0.05 g/l, 24 H.
Setting [9] is: 0.05 g/l + iron citrate 0.05 g/l, 48 H.
Where [10] appears, read: 0.1 g/l + iron citrate 0.05 g/l, 18 H.
Setting [11] is: 0.1 g/l + iron citrate 0.05 g/l, 24 H.
Where [12] appears, read: 0.1 g/l + iron citrate 0.05 g/l, 48 H.
[13] abbreviates: 0.15 g/l, no iron citrate, 18 H.
Where [14] appears, read: 0.15 g/l, no iron citrate, 24 H.
[15] abbreviates: 0.15 g/l, no iron citrate, 48 H.

Take `Cc1cc(=O)oc2cc(O[C@@H]3O[C@H](CO)[C@H](O)[C@H](O)[C@H]3O)ccc12` [4-Methylumbelliferyl-β-D-galactoside]: the “signal in the presence of the substrate” value in assay [1] is on record as “production of a fluorescent signal”.
For `O=C1c2ccccc2C(=O)c2c1ccc(O)c2O[C@@H]1O[C@H](CO)[C@@H](O)[C@H](O)[C@H]1O` [1-Alizarin1-β-D-glucoside, Alizarin-1-β-D-glucoside], the Color entry in assay [2] (setting [7]), in [2] (setting [8]), in [2] (setting [9]), in assay [2] (setting [10]), in assay [2] (setting [11]) and in assay [2] (setting [12]) was “Purple” each time. Also, the Color result in the assay on Citrobacter koseri 059 (setting [7]), with Citrobacter koseri 059 (setting [8]), with Citrobacter koseri 059 (setting [9]), in the assay on Citrobacter koseri 059 (setting [10]), with Citrobacter koseri 059 (setting [11]) and in the assay with Citrobacter koseri 059 (setting [12]) was “Mauve” each time. Also, the Color entry in assay [3] (setting [7]), in assay [3] (setting [8]), in assay [3] (setting [9]), in [3] (setting [10]), in [3] (setting [11]) and in assay [3] (setting [12]) was “Purple” each time. Moreover, the Intensity is 3.5 arbitrary units in assay [2] (setting [7]); 4 arbitrary units in assay [2] (setting [8]); 4 arbitrary units in [2] (setting [9]); 3.5 arbitrary units in [2] (setting [10]); 4 arbitrary units in assay [2] (setting [11]); 4 arbitrary units in assay [2] (setting [12]). The Intensity in the assay on Citrobacter koseri 059 (setting [7]) turned out to be 1.5 arbitrary units; in the assay with Citrobacter koseri 059 (setting [8]) it was 2 arbitrary units; in the assay with Citrobacter koseri 059 (setting [9]), 2.5 arbitrary units; in the assay with Citrobacter koseri 059 (setting [10]) it was 2.5 arbitrary units; with Citrobacter koseri 059 (setting [11]), 3 arbitrary units; with Citrobacter koseri 059 (setting [12]) it was 4 arbitrary units. For the same compound, the Intensity worked out at 2.5 arbitrary units in assay [3] (setting [7]); 3 arbitrary units in [3] (setting [8]); 3.5 arbitrary units in [3] (setting [9]); 3.5 arbitrary units in [3] (setting [10]); 4 arbitrary units in [3] (setting [11]); 4 arbitrary units in assay [3] (setting [12]).
For the compound `OC[C@H]1O[C@@H](Oc2c[nH]c3cc(Cl)ccc23)[C@H](O)[C@@H](O)[C@@H]1O` [reference compound], the Color observed entry (in the assay with Listeria ivanovii 018 (4 H); with Listeria ivanovii 018 (24 H); in [4] (4 H); in [4] (24 H); with Enterococcus faecium 009 (4 H); with Enterococcus faecium 009 (24 H)) was “Pink” in each case. For the same compound, the Color observed result (in assay [5] (4 H); in assay [5] (24 H); with Listeria innocua 036 (4 H); in the assay with Listeria innocua 036 (24 H); with Listeria seeligeri 080) was “Pink” in each case. Moreover, the Color entry (in assay [2] (setting [13]); in assay [2] (setting [14]); in [2] (setting [15]); with Citrobacter koseri 059 (setting [13]); with Citrobacter koseri 059 (setting [14]); with Citrobacter koseri 059 (setting [15])) was “Pink” in each case. In addition, the Color result in [3] (setting [13]), in assay [3] (setting [14]) and in assay [3] (setting [15]) was “Pink” throughout. Besides, the Intensity in assay [2] (setting [13]) worked out at 1.5 arbitrary units; in [2] (setting [14]), 2 arbitrary units; in assay [2] (setting [15]) it was 2.5 arbitrary units; with Citrobacter koseri 059 (setting [13]) it was 0.5 arbitrary units; in the assay on Citrobacter koseri 059 (setting [14]), 1 arbitrary units; with Citrobacter koseri 059 (setting [15]), 2 arbitrary units. Besides, the Intensity in [3] (setting [13]) is 2 arbitrary units; in assay [3] (setting [14]), 2.5 arbitrary units; in [3] (setting [15]), 3 arbitrary units. Moreover, the “species in which activity was detected” value with eight (8) species tested is 6 species.
Regarding `OC[C@H]1O[C@@H](Oc2c[nH]c3cc(Cl)ccc23)[C@H](O)[C@@H](O)[C@H]1O` [6-Chloro-3-indolyl-β-D-galactoside, reference compound], the Color entry with Serratia marcescens 042 (18 H), in the assay with Serratia marcescens 042 (24 H), in the assay with Serratia marcescens 042 (48 H), in the assay with Escherichia coli 115 (18 H), in the assay with Escherichia coli 115 (24 H) and with Escherichia coli 115 (48 H) was “pink” throughout. Moreover, in assay [6], the Color entry is on record as “pink”. Moreover, the Intensity was 0.3 in the assay on Serratia marcescens 042 (18 H); 0.8 with Serratia marcescens 042 (24 H); 3.5 in the assay on Serratia marcescens 042 (48 H); 3.5 in the assay with Escherichia coli 115 (18 H); 3.5 with Escherichia coli 115 (24 H); 3.5 in the assay with Escherichia coli 115 (48 H). The Intensity in assay [6] is recorded as 0.3.

The values are drawn from patent publication US7563592B2, “Alizarin-based chromogenic substrates, their uses and composition containing same” (Biomerieux, S.A., priority 1999, dated 2009).
